From patent US6908942B2, “6-amino-2,2-dimethyl-3,4,6-trisubstituted benzopyran derivatives and their construction by parallel synthesis on solid-phase” (Korea Research Institute of Chemical Technology, priority 2002, dated 2005)

Test system: lipid peroxidation induced by iron
Assay: Inhibitory effect on iron-induced lipid peroxidation in rat brain homogenate (MDA measurement, N-methyl-2-phenylindole, Bioxytech LPO-586 Kit)
Assay type: biochemical
Details: FeCl2 400 μM, 30 min at 37° C., decrease of MDA vs DMSO control, absorption at 586 nm
Protocol: The inhibitory effect of the present compounds on lipid peroxidation induced by iron was evaluated as follows:
Rat brain was homogenized in Krebs buffer (15 mM HEPES, 10 mM glucose, 140 mM NaCl, 3.6 mM KCl, 1.5 mM CaCl2, 1.4 mM KH2PO4 and 0.7 mM MgCl, pH 7.4) and centrifuged at 12,000 rpm to obtain the supernatant serving as a raw material of lipid. To the brain homogenates, FeCl^2 was added to give a final concentration of 400 μM and allowed to stand for 30 min at 37° C. for promoting oxidation. Each of the compounds to be tested was added to give a concentration of 12.5 μM and a control group was solely added with dimethylsulfoxide (DMSO).
When iron is added to brain homogenates, oxidation is promoted to increase the amount of malondialdehyde (MDA) as lipid peroxidation product. Therefore, in this Example, the level of lipid peroxidation was evaluated according to MDA measurement method. In general MDA measurement, the test sample is reacted with TBA (2-thiobarbituric acid) and the absorbance at 530 nm was measured. However, since such process includes a boiling step, it is unsuitable for dealing with test samples in large quantity. Therefore, in this Example, N-methyl-2-phenylindole was used as a color developing reagent in place of TBA so as to avoid boiling step. […] The inhibitory effect on lipid peroxidation of test compounds was evaluated by calculating the decreased level of MDA in percentage based on the amount of MDA in the control group. For the test compounds showing more than 80% inhibitory effect, the concentration-lipid peroxidation inhibition curves were plotted with reference to the decrease rate of MDA amount based on the amount of MDA in the control group and their IC50 values was calculated through least linear regression analysis.
In addition, the representative antioxidants commercialized such as Promethazine, Trolox, Probucol and N-propyl gallate were examined in terms of 50% inhibition concentration (IC50) according to the above procedure and the results are shown in Table 4.

Compound	IC50 [µM]
COC1c2cc(NCc3ccc(C)cc3)ccc2OC(C)(C)C1OCc1ccc(F)cc1 (stereo not shown) [Compound 5-562]	6.47
COC1c2cc(NCc3ccc(C)cc3)ccc2OC(C)(C)C1OCc1cccc(F)c1 (stereo not shown) [Compound 5-564]	4.33
COC1c2cc(NCc3ccc(C)cc3)ccc2OC(C)(C)C1OCc1ccccc1Cl (stereo not shown) [Compound 5-566]	5.73
CNc1ccc2c(c1)C(OC)C(OC(=O)CC(C)(C)C)C(C)(C)O2 (stereo not shown) [Compound 5-1482]	5.27
CNc1ccc2c(c1)C(OC)C(OC(=O)C1CCCCC1)C(C)(C)O2 (stereo not shown) [Compound 5-1483]	2.39
CNc1ccc2c(c1)C(OC)C(OC(=O)c1cccs1)C(C)(C)O2 (stereo not shown) [Compound 5-1489]	3.33
CNc1ccc2c(c1)C(OC)C(OC(=O)c1ccco1)C(C)(C)O2 (stereo not shown) [Compound 5-1490]	3.04
CCCCOC1c2cc(NC)ccc2OC(C)(C)C1OC(=O)c1ccccc1 (stereo not shown) [Compound 5-1515]	2.23
CCCCOC1c2cc(NC)ccc2OC(C)(C)C1OC(=O)c1ccc(C)cc1 (stereo not shown) [Compound 5-1516]	6.34
CCCCOC1c2cc(NC)ccc2OC(C)(C)C1OC(=O)c1ccco1 (stereo not shown) [Compound 5-1520]	3.1
CCNc1ccc2c(c1)C(OC)C(OC(=O)CC(C)(C)C)C(C)(C)O2 (stereo not shown) [Compound 5-1552]	5.43
CCNc1ccc2c(c1)C(OC)C(OC(=O)c1ccc(F)cc1)C(C)(C)O2 (stereo not shown) [Compound 5-1558]	3.37
CCNc1ccc2c(c1)C(OC)C(OC(=O)c1ccco1)C(C)(C)O2 (stereo not shown) [Compound 5-1560]	2.31
CCNc1ccc2c(c1)C(OCC)C(OC(C)=O)C(C)(C)O2 (stereo not shown) [Compound 5-1561]	2.89
CCNc1ccc2c(c1)C(OCC)C(OC(=O)CC(C)(C)C)C(C)(C)O2 (stereo not shown) [Compound 5-1562]	3.03
CCNc1ccc2c(c1)C(OCC)C(OC(=O)C1CCCCC1)C(C)(C)O2 (stereo not shown) [Compound 5-1563]	2.05
CCNc1ccc2c(c1)C(OCC)C(OC(=O)c1ccc(F)cc1)C(C)(C)O2 (stereo not shown) [Compound 5-1568]	4.09
CCNc1ccc2c(c1)C(OCC)C(OC(=O)c1cccs1)C(C)(C)O2 (stereo not shown) [Compound 5-1569]	3.41
CCNc1ccc2c(c1)C(OCC)C(OC(=O)c1ccco1)C(C)(C)O2 (stereo not shown) [Compound 5-1570]	3.03
COC1c2cc(NCc3ccc(F)cc3)ccc2OC(C)(C)C1OC(=O)CC(C)(C)C (stereo not shown) [Compound 5-1762]	1.8
COC1c2cc(NCc3ccc(F)cc3)ccc2OC(C)(C)C1OC(=O)c1ccccc1 (stereo not shown) [Compound 5-1765]	5.13
COc1ccc(C(=O)OC2C(OC)c3cc(NCc4ccc(F)cc4)ccc3OC2(C)C)cc1 (stereo not shown) [Compound 5-1767]	2.63
COC1c2cc(NCc3ccc(F)cc3)ccc2OC(C)(C)C1OC(=O)c1ccc(F)cc1 (stereo not shown) [Compound 5-1768]	2.73

Compound	IC50 [µM]
COC1c2cc(NCc3ccc(F)cc3)ccc2OC(C)(C)C1OC(=O)c1cccs1 (stereo not shown) [Compound 5-1769]	5.97
COC1c2cc(NCc3ccc(F)cc3)ccc2OC(C)(C)C1OC(=O)c1ccco1 (stereo not shown) [Compound 5-1770]	3.11
CCCCOC1c2cc(NCc3ccc(F)cc3)ccc2OC(C)(C)C1OC(=O)c1ccc(OC)cc1 (stereo not shown) [Compound 5-1797]	3.56
CCCCOC1c2cc(NCc3ccc(F)cc3)ccc2OC(C)(C)C1OC(=O)c1cccs1 (stereo not shown) [Compound 5-1799]	6.01
CCCCOC1c2cc(NCc3ccc(F)cc3)ccc2OC(C)(C)C1OC(=O)c1ccco1 (stereo not shown) [Compound 5-1800]	3.9
CC(C)(C)CC(=O)OC1C(OCc2ccccc2)c2cc(NCc3ccc(F)cc3)ccc2OC1(C)C (stereo not shown) [Compound 5-1802]	4.12
Cc1ccc(C(=O)OC2C(OCc3ccccc3)c3cc(NCc4ccc(F)cc4)ccc3OC2(C)C)cc1 (stereo not shown) [Compound 5-1806]	5.85
CC1(C)Oc2ccc(NCc3ccc(F)cc3)cc2C(OCc2ccccc2)C1OC(=O)c1ccc(F)cc1 (stereo not shown) [Compound 5-1808]	3.97
CC1(C)Oc2ccc(NCc3ccc(F)cc3)cc2C(OCc2ccccc2)C1OC(=O)c1cccs1 (stereo not shown) [Compound 5-1809]	6.36
CC1(C)Oc2ccc(NCc3ccc(F)cc3)cc2C(OCc2ccccc2)C1OC(=O)c1ccco1 (stereo not shown) [Compound 5-1810]	4.34
COC1c2cc(NCc3ccc(C)cc3)ccc2OC(C)(C)C1OC(C)=O (stereo not shown) [Compound 5-1831]	2.71
COC1c2cc(NCc3ccc(C)cc3)ccc2OC(C)(C)C1OC(=O)CC(C)(C)C (stereo not shown) [Compound 5-1832]	1.09
COC1c2cc(NCc3ccc(C)cc3)ccc2OC(C)(C)C1OC(=O)C=C(C)C (stereo not shown) [Compound 5-1834]	1.29
COC1c2cc(NCc3ccc(C)cc3)ccc2OC(C)(C)C1OC(=O)c1ccccc1 (stereo not shown) [Compound 5-1835]	1.14
COC1c2cc(NCc3ccc(C)cc3)ccc2OC(C)(C)C1OC(=O)c1ccc(C)cc1 (stereo not shown) [Compound 5-1836]	1.16
COc1ccc(C(=O)OC2C(OC)c3cc(NCc4ccc(C)cc4)ccc3OC2(C)C)cc1 (stereo not shown) [Compound 5-1837]	4.25
COC1c2cc(NCc3ccc(C)cc3)ccc2OC(C)(C)C1OC(=O)c1ccc(F)cc1 (stereo not shown) [Compound 5-1838]	1.31
COC1c2cc(NCc3ccc(C)cc3)ccc2OC(C)(C)C1OC(=O)c1cccs1 (stereo not shown) [Compound 5-1839]	1.07
CC1(C)Oc2ccc(NCc3ccc(F)cc3)cc2C(OCc2ccccc2)C1OC(=O)c1ccco1 (stereo not shown) [Compound 5-1840]	1.03
CCCOC(=O)c1cc(O)c(O)c(O)c1 [N-propyl gallate, reference compound]	25
CC(C)(Sc1cc(C(C)(C)C)c(O)c(C(C)(C)C)c1)Sc1cc(C(C)(C)C)c(O)c(C(C)(C)C)c1 [Probucol, reference compound]	18.2
CC(CN1c2ccccc2Sc2ccccc21)N(C)C (stereo not shown) [Promethazine, reference compound]	10.2
Cc1c(C)c2c(c(C)c1O)CCC(C)(C(=O)O)O2 (stereo not shown) [Trolox, reference compound]	24.6
